Test results as given in patent US4876284A, “1-alkyl-2-aminotetralin derivatives” (Per Arvid Emil Carlsson, priority 1981, dated 1989).
Entries after “also recorded” stand apart in the source; their conditions may differ.

Columns and labels:
[1] = system: central DA-receptor (pre- and/or postsynaptic); experiment: Rat-brain in-vivo tyrosine hydroxylation: Dopa accumulation after NSD 1015 in reserpine-pretreated rats; conditions: for Dopa-accumulation; ED50, Limbic / Dopa-accumulation; ED50, Limbic (class symbol): limbic forebrain; for Dopa-accumulation; ED50, Limbic / Dopa-accumulation; ED50, Striatum / Dopa-accumulation; ED50, Limbic (class symbol) / biochemical activity (Dopa accumulation), in words / Dopa-accumulation; ED50, Striatum (class symbol): reserpine-pretreated rats; for Dopa-accumulation; ED50, Limbic / Dopa-accumulation; ED50, Striatum: half-maximal decrease in Dopa level; for Dopa-accumulation; ED50, Limbic / Dopa-accumulation; ED50, Striatum / Dopa-accumulation; ED50, Limbic (class symbol) / Dopa-accumulation; ED50, Striatum (class symbol): s.c.; for biochemical activity (Dopa accumulation), in words: inactive even at 45 μmol/kg
Method: The compounds under evaluation were tested biochemically for central DA-receptor (pre- and/or postsynaptic) stimulating activity. The concept of this biochemical screening method is that a DA-receptor agonist will stimulate the receptor and through regulatory feedback systems effect a decline in tyrosine hydroxylase activity and thus a subsequent reduction in the synthesis rate for DA in the presynaptic neuron. Dopa formation, as determined after in-vivo inhibition of the aromatic L-amino acid decarboxylase with NSD 1015 (3-hydroxybenzyl-hydrazine hydrochloride), is taken as an indirect measure of DA synthesis rate.
Rats (150-300 g) pretreated with reserpine were given the compounds under evaluation. Gross behavioural observations (changes in motility, stereotypies etc.) were made in order to evaluate possible postsynaptic dopamine receptor activity. subsequent administration of NSD 1015, decapitation, brain dissection [corpora striata, limbic fore-brain and rest of the hemispheral parts (cortex)]homogenization, centrifugation, ion-exchange chromatography and spectro-fluorimetric measurements (all as described in detail by Wikstrom et al., in J. Med. Chem. 21, 864-867, 1978 and references cited therein), gave the actual Dopa levels.
Several doses (n=4-6) were tested in order to obtain dose-response curves for each compound and brain area. The dose of a compound producing a half-maximal decrease in the Dopa level in the rat brain part was then estimated. These values (ED50) are presented in Table I. (Simultaneous determination of the 5-HTP levels was also performed utilizing the same paradigm.)
^b Rats pretreated with reserpine (10 mg/kg i.p.; 18 h) were given th
compounds under evaluation. Fortyfive minutes later they were injected
with NSD 1015 (100 mg/kg i.p.) and after a further 30 min they were
decapitated, the brains rapidly dissected and taken for determination of
the Dopa and 5HTP levels in different areas of the brain. The dose of a
compound producing a halfmaximal decrease (ED50) in the Dopa level i
the rat brain part was then estimated from doseresponse curves comprising
4-6 dose levels. (For further details see the text and references).

DA autoreceptors = experiment: Spontaneous locomotor activity in non-pretreated rats; format: in vivo, rat
Method: Untreated animals exposed to a new environment display an initial high motor activity which then gradually declines over a period of time. Administration of DA-receptor agonists (e.g. apomorphine) in doses where preferential autoreceptor stimulation is likely to occur, causes a depression of the spontaneous motility mentioned above, considered to be due to the DA autoreceptor-medicated attenuation of central DA transmission.
Rats (150-300 g) were injected subcutaneously with compound 2,5-OH-DPAT or apomorphine and after 5 minutes they were individually placed in motility boxes ("M/P 40 Fc Electronic Motility Meter". Motron Products, Stockholm) and the motor activity (0-30 min) was quantified. […] These findings are in congruence with the results obtained with the selective DA-autoreceptor agonist 3-PPP [S. Hjorth t al., Life Sciences, 28, 1225 (1981)] but in sharp contrast to the results obtained with 5-OH-DPAT and apomorphine (Table III).
Non-pretreated rats were given compound -2 (0.0625-16.0 mg/kg),
5OH--2-(di-n-propylamino) tetralin (5OH--DPAT; 0.0125-0.05 mg/kg,
apomorphine (0.1-1.0 mg/kg) or saline subcutaneously. Five minutes later
they were placed individually into motility meters and the locomotor

brain DA synthesis rate = experiment: Formation of Dopa in rat brain regions (non-pretreated rats, NSD 1015); format: in vivo; set-up: formation of Dopa, Limbic forebrain / formation of Dopa, Striatum / formation of Dopa, Diencephalon / formation of Dopa, Brain-stem: unit not given here; conditions: for formation of Dopa, Brain-stem / formation of Dopa, Diencephalon / formation of Dopa, Hemispheral (cortical) parts / formation of Dopa, Limbic forebrain / formation of Dopa, Striatum: mean ± sem
Method: (§1) Immediately thereafter the animals were removed from the boxes. Part of
(§2) the animals were injected with NSD 1015 (100 mg/kg i.p.) and after a
(§3) further 30 min they were killed, the brains rapidly dissected and taken
(§4) for determination of the Dopa and 5HTP levels in different areas of the […]

[2] = system: brain 5-HT synthesis rate; experiment: Formation of 5-hydroxytryptophan in rat brain regions (non-pretreated rats, NSD 1015); format: in vivo; set-up: formation of 5-hydroxytryptophan, Limbic forebrain / formation of 5-hydroxytryptophan, Striatum / formation of 5-hydroxytryptophan, Diencephalon / formation of 5-hydroxytryptophan, Brain-stem: unit not given here; conditions: for formation of 5-hydroxytryptophan, Brain-stem / formation of 5-hydroxytryptophan, Diencephalon / formation of 5-hydroxytryptophan, Hemispheral (cortical) parts / formation of 5-hydroxytryptophan, Limbic forebrain / formation of 5-hydroxytryptophan, Striatum: mean ± sem
Method: as §1, §2, §3, §4

[3] = system: postsynaptic DA receptors; experiment: Antagonism of the reserpine plus α-methyl-para-tyrosine-induced immobility (neuroleptic syndrome) in rats; motor activity; conditions: for Motor activity: 10 mg/kg s.c., reserpine 10 mg/kg + α-methyl-para-tyrosine 250 mg/kg i.p., means ± s.e.m.; for motor response / postsynaptic DA-receptor stimulatory effects: comparative study, Table II, s.c.; for antagonism of the reserpine-induced syndrome / behaviour elicited / postsynaptic DA-receptor stimulation: reserpine and α-methyl-para-tyrosine pretreated rats

## Br.CCCN(CCC)[C@H]1CCc2c(O)cccc2[C@H]1C (relative stereo) [Compound 2, cis-5-Hydroxy-1-methyl-2-(di-n-propylamino) tetralin hydrobromid]
[1]
  Dopa-accumulation; ED50, Limbic: 0.67 μmol/kg s.c.
  Dopa-accumulation; ED50, Striatum: 0.80 μmol/kg s.c.
[1]; versus 3-PPP, Dopa accumulation
  potency relative to 3-PPP (times more potent): approximately 5 times
[1]; versus trans-1-CH3-5-OH-DPAT, 5-OH-DPAT, apomorphine, Dopa accumulation
  comparative potency, in words: equipotent to trans-1-CH3 -5-OH-DPAT; also recorded: less potent than 5-OH-DPAT; also recorded: of the same order of potency as apomorphine
DA autoreceptors; 0.0625 mg/kg s.c., non-pretreated rats
  Locomotor activity: 146 ± 4 counts 0.30 min
DA autoreceptors; 0.25 mg/kg s.c., non-pretreated rats
  Locomotor activity: 117 ± 11 counts 0.30 min
DA autoreceptors; 1.0 mg/kg s.c., non-pretreated rats
  Locomotor activity: 82 ± 8 counts 0.30 min
DA autoreceptors; 4.0 mg/kg s.c., non-pretreated rats
  Locomotor activity: 62 ± 5 counts 0.30 min
DA autoreceptors; 16.0 mg/kg s.c., non-pretreated rats
  Locomotor activity: 63 ± 9 counts 0.30 min
DA autoreceptors; at about 4 mg/kg s.c., 0-30 min
  maximal decrease of the initial high motor activity from control values: 70%
DA autoreceptors; non-pretreated rats, s.c.
  effect on locomotor activity, in words: clear and significant dose-dependent decrease of the initial high motor activity; also recorded: No locomotor stimulation is ever seen
DA autoreceptors; s.c., 0-30 min
  dose at which the maximal effect on motor activity is attained: about 4 mg/kg
Brain DA synthesis rate; 0.0625 mg/kg s.c.
  formation of Dopa, Brain-stem: 177 ± 10
  formation of Dopa, Diencephalon: 148 ± 5
  formation of Dopa, Hemispheral (cortical) parts: 66 ± 2
  formation of Dopa, Limbic forebrain: 114 ± 6
  formation of Dopa, Striatum: 65 ± 4
Brain DA synthesis rate; 0.25 mg/kg s.c.
  formation of Dopa, Brain-stem: 170 ± 6
  formation of Dopa, Diencephalon: 144 ± 2
  formation of Dopa, Hemispheral (cortical) parts: 63 ± 2
  formation of Dopa, Limbic forebrain: 116 ± 3
  formation of Dopa, Striatum: 71 ± 5
Brain DA synthesis rate; 1.0 mg/kg s.c.
  formation of Dopa, Brain-stem: 167 ± 8
  formation of Dopa, Diencephalon: 134 ± 7
  formation of Dopa, Hemispheral (cortical) parts: 60 ± 1
  formation of Dopa, Limbic forebrain: 107 ± 5
  formation of Dopa, Striatum: 75 ± 6
Brain DA synthesis rate; 4.0 mg/kg s.c.
  formation of Dopa, Brain-stem: 170 ± 5
  formation of Dopa, Diencephalon: 137 ± 3
  formation of Dopa, Hemispheral (cortical) parts: 59 ± 2
  formation of Dopa, Limbic forebrain: 113 ± 3
  formation of Dopa, Striatum: 72 ± 4
Brain DA synthesis rate; 16.0 mg/kg s.c.
  formation of Dopa, Brain-stem: 170 ± 8
  formation of Dopa, Diencephalon: 137 ± 5
  formation of Dopa, Hemispheral (cortical) parts: 59 ± 2
  formation of Dopa, Limbic forebrain: 108 ± 5
  formation of Dopa, Striatum: 73 ± 4
Brain DA synthesis rate; non-pretreated rats, s.c.
  effect on brain DA synthesis rate, in words: significant decrease in rate brain DA synthesis rate; also recorded: marked difference in response between the limbic forebrain and the striatal structures
[2]; 0.0625 mg/kg s.c.
  formation of 5-hydroxytryptophan, Brain-stem: 98 ± 4
  formation of 5-hydroxytryptophan, Diencephalon: 196 ± 8
  formation of 5-hydroxytryptophan, Hemispheral (cortical) parts: 40 ± 3
  formation of 5-hydroxytryptophan, Limbic forebrain: 314 ± 15
  formation of 5-hydroxytryptophan, Striatum: 458 ± 17
[2]; 0.25 mg/kg s.c.
  formation of 5-hydroxytryptophan, Brain-stem: 96 ± 11
  formation of 5-hydroxytryptophan, Diencephalon: 170 ± 9
  formation of 5-hydroxytryptophan, Hemispheral (cortical) parts: 46 ± 2
  formation of 5-hydroxytryptophan, Limbic forebrain: 305 ± 14
  formation of 5-hydroxytryptophan, Striatum: 448 ± 26
[2]; 1.0 mg/kg s.c.
  formation of 5-hydroxytryptophan, Brain-stem: 96 ± 7
  formation of 5-hydroxytryptophan, Diencephalon: 170 ± 11
  formation of 5-hydroxytryptophan, Hemispheral (cortical) parts: 43 ± 3
  formation of 5-hydroxytryptophan, Limbic forebrain: 291 ± 9
  formation of 5-hydroxytryptophan, Striatum: 420 ± 30
[2]; 4.0 mg/kg s.c.
  formation of 5-hydroxytryptophan, Brain-stem: 111 ± 8
  formation of 5-hydroxytryptophan, Diencephalon: 176 ± 10
  formation of 5-hydroxytryptophan, Hemispheral (cortical) parts: 47 ± 2
  formation of 5-hydroxytryptophan, Limbic forebrain: 267 ± 6
  formation of 5-hydroxytryptophan, Striatum: 479 ± 9
[2]; 16.0 mg/kg s.c.
  formation of 5-hydroxytryptophan, Brain-stem: 118 ± 4
  formation of 5-hydroxytryptophan, Diencephalon: 214 ± 13
  formation of 5-hydroxytryptophan, Hemispheral (cortical) parts: 48 ± 3
  formation of 5-hydroxytryptophan, Limbic forebrain: 272 ± 20
  formation of 5-hydroxytryptophan, Striatum: 478 ± 10
[2]; non-pretreated rats, s.c.
  effect on brain 5-HT synthesis rate, in words: without any concomitant change in brain 5-HT synthesis rate
[3]
  Motor activity: 52 ± 5 counts 0-60 min
  motor response / postsynaptic DA-receptor stimulatory effects: failed to elicit a motor response that differed more than slightly from control values
  antagonism of the reserpine-induced syndrome / behaviour elicited: inability of compound 2 to antagonize the reserpine-induced syndrome
  postsynaptic DA-receptor stimulation: compound 2 is not

## CCCN(CCC)[C@@H]1CCc2c(O)cccc2[C@H]1C (relative stereo) [trans-1-CH35-OHDPAT, trans-1-methyl-5-hydroxy-2-(di-n-propylamino)tetralin]
[1]
  Dopa-accumulation; ED50, Limbic: 0.66 μmol/kg s.c.
  Dopa-accumulation; ED50, Striatum: 0.73 μmol/kg s.c.
[3]
  Motor activity: 406 ± 47 counts 0-60 min
  motor response / postsynaptic DA-receptor stimulatory effects: strong central postsynaptic DA-receptor stimulatory effects
  antagonism of the reserpine-induced syndrome / behaviour elicited: pronounced stereotyped and hyperactive behaviour
  postsynaptic DA-receptor stimulation: efficient postsynaptic DA-receptor stimulants

## CCCNC1CCc2c(O)cccc2C1(C)C (stereo not drawn) [1,1-di-CH35-OHPAT, 1,1di-CH35-OH2-(n-propylamino)tetralin]
[1]
  Dopa-accumulation; ED50, Limbic (class symbol): I (Inactive. ED50 > 45 μmol/kg.)
  biochemical activity (Dopa accumulation), in words: completely inactive
  Dopa-accumulation; ED50, Striatum (class symbol): I (Inactive. ED50 > 45 μmol/kg.)

## CCCN(CCC)C1CCc2c(O)cccc2C1(C)C (stereo not drawn) [1,1-di-CH35-OHDPAT, 1,1di-CH35-OH2-(di-n-propylamino) tetralin]
[1]
  Dopa-accumulation; ED50, Limbic (class symbol): I (Inactive. ED50 > 45 μmol/kg.)
  biochemical activity (Dopa accumulation), in words: completely inactive
  Dopa-accumulation; ED50, Striatum (class symbol): I (Inactive. ED50 > 45 μmol/kg.)

## CCCN1CCCC(c2cccc(O)c2)C1 (stereo not drawn) [Compound 3-PPP, 3-(3-hydroxyphenyl)-N-n-propylpiperidine]
[1]
  Dopa-accumulation; ED50, Limbic: 3.6 μmol/kg s.c.
  Dopa-accumulation; ED50, Striatum: 3.6 μmol/kg s.c.
[3]
  Motor activity: 51 ± 19 counts 0-60 min
  antagonism of the reserpine-induced syndrome / behaviour elicited: inability of compound 2 to antagonize the reserpine-induced syndrome is shared by the selective Da-autoreceptor agonist 3-PPP
